Key:
scentless chamomile = experiment: Test E scentless chamomile; format: in vivo, Matricaria inodora; conditions: Preemergence
itchgrass = experiment: Test D itchgrass; format: in vivo, Rottboellia exaltata; conditions: Postemergence, 0 to 100 scale
[1] = system: Abutilon theophrasti (ABUTH); experiment: Test F preemergence, alone and in mixture with rimsulfuron, ABUTH; format: in vivo; conditions: 21 days after treatment, 0-100 scale
How it was run: (§1)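 Greenhouse pot plants treated preemergence with compound at 70 and 105 g ai/ha, rimsulfuron at 8.8 and 17.5 g ai/ha, or mixtures; 27° C day/21° C night, 14 hour photoperiod. Injury scored at 21 days after treatment against solvent-sprayed controls; expected additive effect of mixtures calculated by Colby's equation.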

tall mallow = experiment: Test D tall mallow; format: in vivo, Malva sylvestris; conditions: Postemergence, 0 to 100 scale
large crabgrass = experiment: Test D large crabgrass; format: in vivo, Digitaria sanguinalis; conditions: Postemergence, 0 to 100 scale
maize hybrid P33G26 = experiment: Test G maize injury with safener-treated seed; conditions: for Mean plant response rating, maize: 28 days after application
How it was run: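 Maize hybrid P33G26 seed, treated with dichlormid, fenchlorazole-ethyl or naphthalic anhydride or left untreated, was sown in soil pots, then sprayed pre-emergence with several compound rates at 310 L/ha. Plants grew in a greenhouse (14 h day, about 27/24 °C day/night), with 4–5 replicates. Injury was scored visually against untreated controls 28 days after application.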

common groundsel = experiment: Test D common groundsel; format: in vivo, Senecio vulgaris; conditions: Postemergence, 0 to 100 scale
dallisgrass = experiment: Test D dallisgrass; format: in vivo, Paspalum dilatatum; conditions: Postemergence, 0 to 100 scale
Green foxtail [2] = experiment: Test D green foxtail; format: in vivo; conditions: Rate 250 g/ha; Postemergence; 0 to 100 scale
purple nutsedge = experiment: Test D purple nutsedge; format: in vivo, Cyperus rotundus; conditions: Postemergence, 0 to 100 scale
Green foxtail [3] = experiment: Test D green foxtail; format: in vivo; conditions: Postemergence, 0 to 100 scale, 0 no injury, 100 complete control
Green foxtail [4] = experiment: Test D green foxtail; format: in vivo; conditions: Postemergence, 0 to 100 scale, 0 no injury, 100 complete control; remark: listed apart in the source
Johnson grass = experiment: Test D Johnson grass; format: in vivo, Sorghum halepense; conditions: Postemergence, 0 to 100 scale
[5] = system: Chenopodium album (CHEAL); experiment: Test F preemergence, alone and in mixture with rimsulfuron, CHEAL; format: in vivo; conditions: 21 days after treatment, 0-100 scale
How it was run: as §1

windgrass = experiment: Test E windgrass; format: in vivo, Apera spica-venti; conditions: Postemergence
How it was run: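 Each compound, carried in a non-phytotoxic solvent blend including surfactant, was applied (postemergence: over the top of young plants at 1- to 4-leaf stage). Plants stayed in the greenhouse about 21 to 28 days before visual comparison with untreated controls.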

common pursiane = experiment: Test D common purslane; format: in vivo, Portulaca oleracea; conditions: Postemergence, 0 to 100 scale
Green foxtail [6] = experiment: Test D green foxtail; format: in vivo; conditions: Rate 250 g/ha; Postemergence; 0 to 100 scale; remark: listed apart in the source
sourgrass = experiment: Test D sourgrass; format: in vivo, Trichachne insularis; conditions: Postemergence, 0 to 100 scale
common ragweed = experiment: Test D common ragweed; format: in vivo, Ambrosia elatior; conditions: Postemergence, 0 to 100 scale
surinam grass = experiment: Test D surinam grass; format: in vivo, Brachiaria decumbens; conditions: Postemergence, 0 to 100 scale
Green foxtail [7] = experiment: Test D green foxtail; format: in vivo; conditions: Postemergence, 0 to 100 scale, 0 no injury, 100 complete control; remark: listed apart in the source
[8] = Rate 16 g/ha, 0 no injury, 100 complete control
[9] = Rate 32 g/ha, 0 no injury, 100 complete control
[10] = Rate 64 g/ha, 0 no injury, 100 complete control
[11] = Rate 125 g/ha, 0 no injury, 100 complete control
[12] = Alone: Cmpd. rate 70, Rimsulfuron 0
[13] = Alone: Cmpd. rate 105, Rimsulfuron 0

CC(C)N(C(=O)n1oc(=O)n(C(C)C)c1=O)c1ccc(Cl)cc1 [Compound 114]
Plant response rating, Scentless chamo (scentless chamomile; Rate 125 g/ha, 0 to 100 scale (0 no effect, 100 complete control)): 30 | Plant response rating, Scentless chamo (scentless chamomile; Rate 250 g/ha, 0 to 100 scale): 30 | Plant response rating, Scentless chamo (scentless chamomile; Rate 500 g/ha, 0 to 100 scale where 0 is no effect and 100 is complete control): 10

CC(C)N(C(=O)n1oc(=O)n(C(C)C)c1=O)c1ccc(F)cc1 [Compound 131]
Plant response rating, Itchgrass (itchgrass; [8]): 0 | Plant response rating, Itchgrass (itchgrass; [9]): 0 | Plant response rating, Itchgrass (itchgrass; [10]): 20 | Plant response rating, Itchgrass (itchgrass; [11]): 100 | Plant response rating, Itchgrass (itchgrass; Rate 250 g/ha): 100 | ABUTH Observed [1, 12]: 40% | ABUTH Observed [1, 13]: 60% | Plant response rating, Tall Mallow (tall mallow; [8]): 0 | Plant response rating, Tall Mallow (tall mallow; [9]): 30 | Tall Mallow plant response rating (tall mallow; [10]): 40 | Tall Mallow plant response rating (tall mallow; [11]): 90 | Plant response rating, Tall Mallow (tall mallow; Rate 250 g/ha): 100 | Plant response rating Large crabgrass (large crabgrass; [8]): 90 | Plant response rating Large crabgrass (large crabgrass; [9]): 100 | Plant response rating Large crabgrass (large crabgrass; [10]): 100 | Plant response rating Large crabgrass (large crabgrass; [11]): 100 | Plant response rating Large crabgrass (large crabgrass; Rate 250 g/ha): 100 | Mean plant response rating, maize (maize hybrid P33G26; Safener Dichlormid (seed treatment), Rate 70 g ai/ha): 3 percent control | Mean plant response rating, maize (maize hybrid P33G26; Safener Dichlormid (seed treatment), Rate 140 g ai/ha): 3 percent control | Mean plant response rating, maize (maize hybrid P33G26; Safener Dichlormid (seed treatment), Rate 280 g ai/ha): 3 percent control | Mean plant response rating, maize (maize hybrid P33G26; Safener Dichlormid (seed treatment), Rate 560 g ai/ha): 40 percent control | Mean plant response rating, maize (maize hybrid P33G26; Safener Fenchlorazole-ethyl (seed treatment), Rate 70 g ai/ha): 85 percent control | Mean plant response rating, maize (maize hybrid P33G26; Safener Fenchlorazole-ethyl (seed treatment), Rate 140 g ai/ha): 91 percent control | Mean plant response rating, maize (maize hybrid P33G26; Safener Fenchlorazole-ethyl (seed treatment), Rate 280 g ai/ha): 92 percent control | Mean plant response rating, maize (maize hybrid P33G26; Safener Fenchlorazole-ethyl (seed treatment), Rate 560 g ai/ha): 96 percent control | Mean plant response rating, maize (maize hybrid P33G26; Safener None, Rate 70 g ai/ha): 80 percent control | Mean plant response rating, maize (maize hybrid P33G26; Safener None, Rate 140 g ai/ha): 88 percent control | Mean plant response rating, maize (maize hybrid P33G26; Safener None, Rate 280 g ai/ha): 91 percent control | Mean plant response rating, maize (maize hybrid P33G26; Safener None, Rate 560 g ai/ha): 95 percent control | Mean plant response rating, maize (maize hybrid P33G26; Safener naphthalic anhydride (seed treatment), Rate 140 g ai/ha): 0 percent control | Injury to maize (maize hybrid P33G26; absence of any safener, rates ranging from 70 to 560 g/ha): severely injurious to maize | Plant response rating, Com. groundsel (common groundsel; [8]): 90 | Plant response rating, Com. groundsel (common groundsel; [9]): 100 | Plant response rating, Com. groundsel (common groundsel; [10]): 100 | Plant response rating, Com. groundsel (common groundsel; [11]): 100 | Plant response rating, Com. groundsel (common groundsel; Rate 250 g/ha): 100 | Plant response rating, Dallisgrass (dallisgrass; [8]): 20 | Plant response rating, Dallisgrass (dallisgrass; [9]): 60 | Plant response rating, Dallisgrass (dallisgrass; [10]): 100 | Plant response rating, Dallisgrass (dallisgrass; [11]): 100 | Plant response rating, Dallisgrass (dallisgrass; Rate 250 g/ha): 100 | Plant response rating, Green foxtail (Green foxtail [2]): 100 | Plant response rating, Purple nutsedge (purple nutsedge; [8]): 0 | Plant response rating, Purple nutsedge (purple nutsedge; [9]): 0 | Purple nutsedge plant response rating (purple nutsedge; [10]): 0 | Purple nutsedge plant response rating (purple nutsedge; [11]): 30 | Plant response rating, Purple nutsedge (purple nutsedge; Rate 250 g/ha): 100 | Plant response rating, Green foxtail (Green foxtail [3]; Rate 16 g/ha): 0 | Plant response rating, Green foxtail (Green foxtail [3]; Rate 32 g/ha): 60 | Plant response rating, Green foxtail (Green foxtail [4]; Rate 16 g/ha): 0 | Plant response rating, Green foxtail (Green foxtail [4]; Rate 32 g/ha): 60 | Plant response rating Johnsongrass (Johnson grass; [8]): 0 | Plant response rating Johnsongrass (Johnson grass; [9]): 0 | Plant response rating Johnsongrass (Johnson grass; [10]): 30 | Plant response rating Johnsongrass (Johnson grass; [11]): 60 | Plant response rating Johnsongrass (Johnson grass; Rate 250 g/ha): 100 | CHEAL Observed [5, 12]: 60% | CHEAL Observed [5, 13]: 95% | Plant response rating, Windgrass (windgrass; Rate 62 g/ha, 0 to 100 scale): 85 | Windgrass plant response rating (windgrass; Rate 250 g/ha, 0 to 100 scale where 0 is no effect and 100 is complete control): 90 | Plant response rating, C. purslane (common pursiane; [8]): 0 | Plant response rating, C. purslane (common pursiane; [9]): 0 | Plant response rating, C. purslane (common pursiane; [10]): 0 | Plant response rating, C. purslane (common pursiane; [11]): 0 | Plant response rating, C. purslane (common pursiane; Rate 250 g/ha): 0 | Plant response rating, Green foxtail (Green foxtail [6]): 100 | Sourgrass plant response rating (sourgrass; [11]): 50 | Plant response rating, Sourgrass (sourgrass; Rate 250 g/ha): —80 | Plant response rating, C. ragweed (common ragweed; [8]): 0 | Plant response rating, C. ragweed (common ragweed; [9]): 0 | Plant response rating, C. ragweed (common ragweed; [10]): 0 | Plant response rating, C. ragweed (common ragweed; [11]): 90 | Plant response rating, C. ragweed (common ragweed; Rate 250 g/ha): 100 | Plant response rating, Surinam grass (surinam grass; [8]): 0 | Plant response rating, Surinam grass (surinam grass; [9]): 40 | Surinam grass plant response rating (surinam grass; [10]): 60 | Surinam grass plant response rating (surinam grass; [11]): 100 | Plant response rating, Surinam grass (surinam grass; Rate 250 g/ha): 100 | Green foxtail plant response rating (Green foxtail [7]; Rate 64 g/ha): 100 | Green foxtail plant response rating (Green foxtail [7]; Rate 125 g/ha): 100

Source: patent publication US6737383B1, “Herbicidal oxadiazolidines” (priority 1999, dated 2004)
